Data set [1] concerns human oral cancer cells OECM-1. The data set is described as follows: Cell cycle distribution, PI staining by flow cytometry. Format: cell-based. The note with it: 10˜20 μg/ml, 24 h. The method, then:
(§1) Human oral cancer cell line OECM-1 cells were incubated for 24 h with ginsenoside M1 (10˜20 μg/ml), 50 μM cistaplatin (CDDP) or vehicle (0.1% DMSO). (FIG. 3A) The apoptotic DNA breaks was assayed by terminal deoxynucleotidyl transferase dUTP nick end labeling (TUNEL) assay using flow cytometry. (FIG. 3B) The cell cycle distribution was determined by PI staining using flow cytometry. (FIG. 3C) The apoptosis level was measured by PI/Annexin V double staining assay using flow cytometry. (FIG. 3D) The activation levels of caspase-9 and caspase-3 were measured by detecting the degradation of pro-caspase-9 and pro-caspase-3 using Western blotting. […] (One-way ANOVA with Dunnett's multiple comparisons test).
(§2) To gain further insight into the mode of action of ginsenoside M1, three assays targeting hallmarks of apoptosis, namely (1) the apoptotic DNA breaks assayed by terminal deoxynucleotidyl transferase dUTP nick end labeling (TUNEL) assay, (2) the cell cycle assayed by flow cytometry after propidium iodide (PI)-staining nuclei, (3) the PI/Annexin V double staining assay, and (4) caspase activation were performed. Plate 1×10^6 human oral cancer cells OECM-1 per 6-cm dish in 2 ml of culture medium and were grown overnight at 37° C. in a 5% CO2 incubator. The cells were incubated for 24 h with ginsenoside M1 (10˜20 μg/ml), 50 μM cistaplatin (CDDP) or vehicle. Each group contains a final DMSO concentration of 0.1%. Thereafter, three assays were performed. […] The cells in sub-G1 phase increased after treatment with ginsenoside M1 and CDDP. (FIG. 3B). […] The data were expressed as mean±SD; n=3. ** and *** indicate a significant difference at the level of p<0.01 and p<0.001, respectively, compared to vehicle-control cells. (One-way ANOVA with Dunnett's multiple comparisons test).

The nature of data set [2]: Body weight of SAS xenograft mice. It counts as in vivo, BALB/c nude (nu/nu) mice. The note with it: 5 successive days. On the procedure:
FIGS. 6A-6C show oral administration of ginsenoside M1 reduced human oral cancer growth in mice. Human oral cancer cell line SAS cells Xenografts mice with tumor size around 40˜60 mm^3 were given a daily oral administration of either ginsenoside M1 (30-90 mg/kg) or vehicle for 5 successive days. (FIG. 6A) The tumor volume was determined by measurement of the length (L) and width (W) of the tumor and calculated as tumor volume (mm3)=(L×W^2)/2. (FIG. 6B) The tumor weight was measured after the mice were scarified. (FIG. 6C) The body weight of mice was recorded. The data were expressed as mean±SD; n=6. ** and *** indicate a significant difference at the level of p<0.01 and p<0.001, respectively, compared to vehicle-control mice. […]
FIGS. 7A-7C show subcutaneous (SC) injection of ginsenoside M1 reduced human oral cancer growth in mice. […] (FIG. 7A) The tumor volume was determined by measurement of the length (L) and width (W) of the tumor and calculated as tumor volume (mm3)=(L×W^2)/2. (FIG. 7B) The tumor weight was measured after the mice were scarified. (FIG. 7C) The body weight of mice was recorded. The data were expressed as mean±SD; n=6. ** indicates a significant difference at the level of p<0.01, compared to vehicle-control mice. […]
To evaluate the anti-cancer activity of ginsenoside M1 in vivo, human oral cancer xenografts were used. […] The TV on day n (TVn) was calculated as TV (mm3)=(L×W^2)/2. […]

Data set [3] concerns human oral cancer cells OECM-1. The data set is described as follows: PI/Annexin V double staining assay by flow cytometry. The note with it: 24 h. Format: cell-based. The method, then: as §1, §2
A general note: Flow cytometry measures light scatter and fluorescence of single cells or particles in a stream.

Data set [4] relates to human oral cancer cells SAS. The data set is described as follows: Viability of human oral cancer SAS cells, Trypan blue exclusion. The note with it: 5˜20 μg/ml, 24 h. It counts as cell-based. On the procedure: Human oral cancer cell line SAS cells (FIG. 1A) or OECM-1 cells (FIG. 1B) were incubated for 24 h with ginsenoside M1 (5˜20 μg/ml), ginsenoside Rh2 (5˜20 μg/ml) or vehicle (0.1% DMSO). The live cell numbers were counted by Trypan blue exclusion method. The data were expressed as mean±SD; n=3. *, ** and *** indicate a significant difference at the level of p<0.05, p<0.01 and p<0.001, respectively, compared to vehicle-control cells. (One-way ANOVA with Dunnett's multiple comparisons test).
Plate 5×10^5 human oral cancer cells SAS per 6-cm dish in 2 ml of culture medium and were grown overnight at 37° C. in a 5% CO2 incubator. The cells were incubated for 24 h with ginsenoside M1 (5˜20 μg/ml), ginsenoside Rh2 (5˜20 μg/ml) or vehicle. Each group contains a final DMSO concentration of 0.1%. Thereafter, the cell numbers were counted by Trypan blue exclusion method. […] The data were expressed as mean±SD; n=3. *, ** and *** indicate a significant difference at the level of p<0.05, p<0.01 and p<0.001, respectively, compared to vehicle-control cells. (One-way ANOVA with Dunnett's multiple comparisons test).

Molecules are shown by their SMILES.

For `CC(C)=CCC[C@](C)(O[C@@H]1OC(CO)[C@@H](O)[C@@H](O)C1O)[C@H]1CC[C@]2(C)C1[C@H](O)CC1[C@@]3(C)CC[C@H](O)C(C)(C)C3CC[C@]12C` (stereo partly drawn) [ginsenoside M1, 20-O-β-D-glucopyranosyl-20(S)-protopanaxadiol], the “cells in sub-G1 phase” value in data set [1] was “increased”. Moreover, the “cells in G1 phase” value in data set [1] (vs control cells) was “increased in a concentration-dependent manner”. Besides, in data set [1] (vs control cells), the “percentage of cells in S and G2/M phase” value is “decreasing”. The “body weight of mice” value in data set [2] (SC injection 20 mg/kg daily) and in data set [2] (oral 30-90 mg/kg daily) was “did not significantly affect” each time. For the same compound, the “percentage of OECM-1 cells with PI/Annexin V double positive staining” value is “not 10 μg/ml ginsenoside M1 significantly increased” in data set [3] (10 μg/ml) and “significantly increased” in data set [3] (20 μg/ml). The “cell numbers of human oral cancer SAS cells” value in data set [4] is “dose-dependently inhibited”.
